# Reference: patent US20200222347A1, “ANTIMICROBIALS AND METHODS OF USE THEREOF” (priority 2013, published 2020)
# Entries after “also recorded” stand apart in the source; their conditions may differ.
# Columns and labels:
# P. acnes 6919 = experiment: Kirby-Bauer disc diffusion antimicrobial susceptibility; type: cell-based; conditions: 100 mM, carrier water
# K. pneumoniae = experiment: as above; type: cell-based; conditions: 100 mM, carrier water; 18-24 hours for aerobes
# [1] = system: normal human skin bacterial resident flora; experiment: Summary of the 4 Phase Testing at Loma Linda; type: in vivo
# Protocol: A randomized double blinded study was performed at Loma Linda Medical School. It involved 4 phases over two years' time.
# [2] = system: Pseudomonas Aeruginosa ATCC 700888 biofilm; experiment: Drip flow biofilm reactor, PCA coated cloth and sintered mesh, Example 7; type: cell-based
# From the text: The cloth was dried when tested.
# Propionibacterium acnes = experiment: Human skin disinfection study, species analysis of cultures; type: in vivo; conditions: Phase IV
# Protocol: Phase 1: The active test reagent was topically applied 1.54% PCA in sterile water to the anterior shoulder region. This 1.54% solution of PCA in water was used effectively in our prior animal wound studies. The controls were Chloroprep (2% Chlorhexidine in 70% isopropyl alcohol) and Betadine (9.0% to 12.0% available iodine in water). Cultures were taken before application and 20 minutes after application. The initial harvest was by a surface swab. Application was by soaked sponge, without force or scrubbing. The second harvest was performed with the back edge of a sterile knife blade scraping with pressure in attempt to maximize the harvest from the deeper sebaceous glands and hair follicles. The specimens were placed in culture media. Bacteriology was performed at WuXiAppTec in Marrietta, Ga.
# Phase 2 included eleven medical students and was same method as Phase 1. However the PCA vehicle was changed to 70% isopropyl alcohol. This allowed a higher concentration of PCA than possible in sterile water, 10%. Phase 2a: The 70% isopropyl alcohol vehicle was tested for its bactericidal properties. […] In this way it was learned what specific bacterial strains PCA could eliminate or reduce.
# Cultures were stored in ice and shipped in FedEx ice box to WuXiapptec in Marietta, Ga. for aerobic and anaerobic cultures and held for 21 days. […]
# [3] = system: E. coli, ATTC 8739 and ATCC 43895; experiment: Kirby-Bauer disc diffusion antimicrobial susceptibility; type: cell-based; conditions: 100 mM, carrier water; 18-24 hours for aerobes
# [4] = system: Staphylococcus epidermidis ATCC 51625 (MRSE); experiment: In vitro antimicrobial test (FIG. 32); type: cell-based
# [5] = system: Staphylococcus aureus ATCC 33591 (MRSA) biofilm; experiment: Drip flow biofilm reactor, PCA coated cloth and sintered mesh, Example 7; conditions: 30% concentration of PCA (FIG. 36)
# C. albicans = experiment: Kirby-Bauer disc diffusion antimicrobial susceptibility; type: cell-based, Candida albicans; conditions: 100 mM, carrier water
smiles,measurement,setting,value
"O=C(O)c1ccc(O)c(O)c1 [PCA, Protocatechuic acid]",effectiveness against P. acnes (growth inhibition),P. acnes 6919,effective; also recorded: able to kill; also recorded: bactericidal
same,effectiveness against K. pneumoniae,K. pneumoniae,effective
same,optimal dose to act as a human skin disinfectant,[1]; in vivo,greater than 10%
same,removal of pathogens from human skin,[1]; solutions at 10% or higher,removed all pathogens
same,effectiveness against Pseudomonas biofilm,[2]; 10% concentration of PCA (FIG. 33),not as effective
same,effectiveness against Pseudomonas biofilm,"[2]; 20% concentration of PCA in 70% isopropyl alcohol, dried coating (FIG. 34)",effective; also recorded: very effective
same,P. acnes growth after treatment,"Propionibacterium acnes; culture #14, 20 minutes",no growth
same,P. acnes growth after treatment,"Propionibacterium acnes; culture #19, 60 minutes",no growth
same,effectiveness against E. coli,[3],effective
same,effectiveness against MRSE ATCC 51625,[4],effective
same,effectiveness against MRSA biofilm,[5],effective; also recorded: very effective
same,effectiveness against C. albicans,C. albicans,effective; also recorded: susceptible
